Converted amounts (≈) assume the structure as drawn.
Legend:
C. freundii = experiment: MIC of carbapenem by Etest (Example 2); assay type: cell-based, Citrobacter freundii
Method: (§1) All strains had previously been characterized for their β-lactamase content at the molecular level. Minimum inhibitory concentration of carbapenem were determined using the Etest® (AB bioMérieux, Solna, Sweden) and results were recorded according to US guidelines (CLSI), as updated in 2011.

P. rettgeri = experiment: MIC by Etest on Mueller-Hinton agar (Example 1); assay type: cell-based, Proteus rettgeri; conditions: Providencia rettgeri; P. rettgeri RAP (9); OXA-181 + OXA-1
Method: Prior to performing the method of the invention, susceptibility testings were performed by determining Minimum Inhibitory Concentration (MIC) values by the Etest® (AB bioMérieux; Solna, Sweden) on Mueller-Hinton agar plates at 37° C. and results of susceptibility testing were recorded according to the Clinical and Laboratory Standards Institute (CLSI) guidelines as modified in June 2010 (18). The breakpoints for imipenem are S≦1 μg/ml (susceptibility) and R≧4 μg/ml (resistant). As for those for ertapenem, they are S≦0.25 μg/ml and R≧1 μg/ml (see Tables 1 and 2).

E. asburiae = experiment: MIC of carbapenem by Etest (Example 2); assay type: cell-based, Enterobacter asburiae; conditions: E. asburiae IMI-2, n=1
Method: as §1

E. coli = experiment: MIC of carbapenem by Etest (Example 2); assay type: cell-based, Escherichia coli
Method: as §1

P. stutzeri = experiment: Susceptibility testing by Etest on Mueller-Hinton agar (Example 3); assay type: cell-based; conditions: Stutzerimonas stutzeri
Method: (§2) Susceptibility testing was performed using the Etest® (bioMérieux; La Balmes-les-Grottes, France) on Mueller-Hinton agar plates (Becton Dickinson, Le Pont de Chaix, France) at 37° C. and results were recorded according to US guidelines (CLSI), as updated in 2012. The breakpoints for imipenem, meropenem and doripenem are as follows; susceptibility (S)≦2, and resistance (R)≧8 μg/ml.

P. fluorescens = experiment: as above; assay type: cell-based; conditions: Pseudomonas fluorescens
Method: as §2

P. putida = experiment: as above; assay type: cell-based; conditions: Pseudomonas putida
Method: as §2

[1] = ESBL + decreased membrane permeability, C. freundii TEM-3, n=1
[2] = Plasmid mediated AmpC or chromosomal AmpC + decreased membrane permeability, E. coli ACC-1, n=1
[3] = Plasmid mediated AmpC or chromosomal AmpC + decreased membrane permeability, E. coli CMY-2, n=1
[4] = Plasmid mediated AmpC or chromosomal AmpC + decreased membrane permeability, E. coli CMY-10, n=1
[5] = Plasmid mediated AmpC or chromosomal AmpC + decreased membrane permeability, E. coli DHA-1, n=1
[6] = Plasmid mediated AmpC or chromosomal AmpC + decreased membrane permeability, E. coli Extended spectrum cephalosporinase, n=1
[7] = Plasmid mediated AmpC or chromosomal AmpC + decreased membrane permeability, E. coli Overexpressed cephalosporinase, n=1

| Structure (SMILES) | MICs range (C. freundii; C. freundii NDM-1, n=1) [mg/L] | MICs range (C. freundii; [1]) [mg/L] | MIC (P. rettgeri) [µg/mL] | MICs range (E. asburiae) [mg/L] | MICs range (E. coli; E. coli IMP-1, n=2) [mg/L] | MICs range (E. coli; E. coli IMP-8, n=1) [mg/L] | MICs range (E. coli; E. coli OXA-48, n=6) [mg/L] | MICs range (E. coli; E. coli VIM-1, n=2) [mg/L] | MICs range (E. coli; E. coli VIM-2, n=2) [mg/L] | MICs range (E. coli; E. coli VIM-19, n=1) [mg/L] | MICs range (E. coli; ESBLs, E. coli CTX-M-1, n=1) [mg/L] | MICs range (E. coli; ESBLs, E. coli CTX-M-3, n=1) [mg/L] | MICs range (E. coli; ESBLs, E. coli CTX-M-14, n=2) [mg/L] | MICs range (E. coli; ESBLs, E. coli CTX-M-15, n=2) [mg/L] | MICs range (E. coli; ESBLs, E. coli VEB-1, n=1) [mg/L] | MICs range (E. coli; [2]) [mg/L] | MICs range (E. coli; [3]) [mg/L] | MICs range (E. coli; [4]) [mg/L] | MICs range (E. coli; [5]) [mg/L] | MICs range (E. coli; [6]) [mg/L] | further results |
| --- | --- | --- | --- | --- | --- | --- | --- | --- | --- | --- | --- | --- | --- | --- | --- | --- | --- | --- | --- | --- | --- |
| C[C@@H](O)[C@H]1C(=O)N2C(C(=O)O)=C(S[C@@H]3CN[C@H](C(=O)Nc4cccc(C(=O)O)c4)C3)[C@H](C)[C@H]12 [ERT, ertapenem] | >32 | 8 | 2 | >32 | 3 to 4 | 8 | 0.5 to 16 | 0.38 to 1.5 | 0.5 to 1.5 | 16 | 0.12 | 0.12 | 0.12 | 0.12 | 0.12 | 0.12 | 0.12 | 0.38 | 0.12 | 0.12 | MICs range (E. coli; [7]): >32 mg/L |
| C[C@@H](O)[C@H]1C(=O)N2C(C(=O)O)=C(SCCN=CN)C[C@H]12 [IMP, imipenem] | >32 | 1 | 1 | >32 | 0.5 | 6 | 0.38 to 3 | 1.5 to 3 | 2 to 4 | 8 | 0.12 | 0.12 | 0.12 | 0.12 | 0.12 to 0.25 | 0.12 | 0.12 | 0.12 | 0.12 | 0.12 | MICs range (E. coli; E. coli KPC-2, n=5): 0.5 to 4 mg/L; MICs range (E. coli; E. coli NDM-1, n=7): 1 to 16 mg/L; MICs range (E. coli; [7]): 16 mg/L; MIC (P. stutzeri; P. stutzeri 13, DIM-1): > 0.032 µg/mL; MIC (P. stutzeri; P. stutzeri P511503100, VIM-2): > 0.032 µg/mL; MIC (P. stutzeri; P. stutzeri PB207, IMP-1): 0.002 µg/mL (≈ 0.00668 µM); MIC (P. fluorescens; P. fluorescens COU, VIM-2): > 0.032 µg/mL; MIC (P. fluorescens; P. fluorescens, BIC-1): > 0.032 µg/mL; MIC (P. putida; CIP55, P. putida CIP 55-5, wild type, none): 0.0005 µg/mL (≈ 0.00167 µM); MIC (P. putida; P. putida 9335, VIM-2): > 0.032 µg/mL; MIC (P. putida; P. putida NTU 91/99, VIM-2): > 0.032 µg/mL; MIC (P. putida; P. putida NTU 92/99, IMP-1): 0.001 µg/mL (≈ 0.00334 µM) |
